Source: patent US9999656B2, “Treatment of short bowel syndrome patients with colon-in-continuity” (Shire-NPS Pharmaceuticals, Inc., priority 2004, dated 2018)

Tested on: patients with short bowel syndrome (SBS)
Experiment: 72-hour nutrient balance studies in open-label pilot study of teduglutide
Assay type: in vivo, human
Conditions: for Energy Absorption (% of intake), Effect of Treatment (Treatment minus Baseline) mean ± SD / Energy Absorption, Effect of Treatment (Treatment minus Baseline) mean ± SD / Energy Fecal, Effect of Treatment (Treatment minus Baseline) mean ± SD / Urine Wet Weight, Effect of Treatment (Treatment minus Baseline) mean ± SD / Wet Weight Absorption (% of intake), Effect of Treatment (Treatment minus Baseline) mean ± SD / Wet Weight Absorption, Effect of Treatment (Treatment minus Baseline) mean ± SD / Wet Weight Fecal, Effect of Treatment (Treatment minus Baseline) mean ± SD: Days 18-21 vs baseline; for Energy Absorption (% of intake), Effect at Follow up (Follow up minus Baseline) mean ± SD / Energy Absorption, Effect at Follow up (Follow up minus Baseline) mean ± SD / Energy Fecal, Effect at Follow up (Follow up minus Baseline) mean ± SD / Urine Wet Weight, Effect at Follow up (Follow up minus Baseline) mean ± SD / Wet Weight Absorption (% of intake), Effect at Follow up (Follow up minus Baseline) mean ± SD / Wet Weight Absorption, Effect at Follow up (Follow up minus Baseline) mean ± SD / Wet Weight Fecal, Effect at Follow up (Follow up minus Baseline) mean ± SD: follow-up Days 39-42 vs baseline; for decrease in fecal energy excretion compared to baseline: stated as reduction
Description: This was an open-label, pilot study to determine the safety and effect of teduglutide in patients with short bowel syndrome (SBS). The patient's history was reviewed and a physical examination performed to determine eligibility before inclusion in the study. Estimated residual small intestine and colon lengths were determined by reviewing operative reports and available radiographic studies. Eligible patients were admitted as inpatients to hospital wards or General Clinic Research Centers (GCRC) on three separate occasions, 18 days apart, for the last four days and three nights of the baseline period and at the end of the treatment and follow-up periods. Treatment consisted of recombinant teduglutide (supplied by NPS Allelix, Mississauga, ON, Canada) formulated as a lyophilized powder with L-histidine, mannitol, and monobasic and dibasic sodium phosphate (Lot 8502901). Water was added to reconstitute the drug for administration by subcutaneous (s.c.) injections in the abdomen or thigh. Ten SBS patients with jejunostomy received 0.03 mg/kg/d, 0.10 mg/kg/d or 0.15 mg/kg/d once daily for 21 days. Five SBS patients with ≥50% colon-in-continuity received teduglutide 0.10 mg/kg/d once daily for 21 days.
The 72-hour nutrient balance studies were completed with each patient eating their usual diet, calculated from a seven-day food diary completed by the patient during the screening period. It was intended that patients eat the same quantity and quality of food and beverages during each admission. During the 72-hour balance periods, all oral intake (duplicate meals and beverages and declined food), fecal/stomal output, and urine were collected and weighed. All stool samples were refrigerated during the collection period. Stools and diets were separately homogenized and analyzed for energy content (by bomb calorimetry), nitrogen (by the macro-Kjeldahl's method), fat (by the gravimetric technique), and sodium and potassium (by atomic absorption).
Using the SAS (Version 8.2; SAS Institute, Cary, N.C.) statistical program, a Student's paired t test was employed that compared treatment to baseline values, and follow-up to baseline values. No comparisons were made between patients on different doses or with different anatomy due to the limited number of patients in the study. Data are expressed as mean±SD. A value of p<0.05 was considered significant.

[1] = Group 2 SBS end-jejunostomy, N=10, 0.03-0.15 mg/kg/d s.c. once daily 21 days
[2] = Group 2 SBS end-jejunostomy, N=10
[3] = Group 2 SBS end-jejunostomy, of N=10
[4] = Group 3 SBS ≥50% colon-in-continuity, N=5, 0.10 mg/kg/d s.c. once daily 21 days
[5] = Group 3 SBS ≥50% colon-in-continuity, N=5
[6] = Group 3 SBS ≥50% colon-in-continuity, of N=5

For `CC[C@H](C)[C@H](NC(=O)[C@H](Cc1ccccc1)NC(=O)[C@H](CC(=O)O)NC(=O)[C@H](CCCNC(=N)N)NC(=O)[C@H](C)NC(=O)[C@H](C)NC(=O)[C@H](CC(C)C)NC(=O)[C@H](CC(N)=O)NC(=O)[C@H](CC(=O)O)NC(=O)[C@H](CC(C)C)NC(=O)[C@@H](NC(=O)[C@@H](NC(=O)[C@H](CC(N)=O)NC(=O)[C@H](CCSC)NC(=O)[C@H](CCC(=O)O)NC(=O)[C@H](CC(=O)O)NC(=O)[C@H](CO)NC(=O)[C@H](Cc1ccccc1)NC(=O)[C@H](CO)NC(=O)CNC(=O)[C@H](CC(=O)O)NC(=O)CNC(=O)[C@@H](N)Cc1c[nH]cn1)[C@@H](C)O)[C@@H](C)CC)C(=O)N[C@@H](CC(N)=O)C(=O)N[C@@H](Cc1c[nH]c2ccccc12)C(=O)N[C@@H](CC(C)C)C(=O)N[C@H](C(=O)N[C@@H](CCC(N)=O)C(=O)N[C@H](C(=O)N[C@@H](CCCCN)C(=O)N[C@H](C(=O)N[C@H](C(=O)N[C@@H](CC(=O)O)C(=O)O)[C@@H](C)O)[C@@H](C)CC)[C@@H](C)O)[C@@H](C)CC` [teduglutide, [Gly2]hGLP-2], the “Energy Absorption (% of intake), Effect of Treatment (Treatment minus Baseline) mean ± SD” value [1] was 5 ± 20 % of intake, the “Energy Absorption, Effect of Treatment (Treatment minus Baseline) mean ± SD” value [1] was 363 ± 2656 kJ/day and the “Energy Fecal, Effect of Treatment (Treatment minus Baseline) mean ± SD” value [1] was -532 ± 1703 kJ/day. For the same molecule, the “Urine Wet Weight, Effect of Treatment (Treatment minus Baseline) mean ± SD” value [1] was 680 ± 535 g/day, the “Wet Weight Absorption (% of intake), Effect of Treatment (Treatment minus Baseline) mean ± SD” value [1] was 20±18 % of intake and the “Wet Weight Absorption, Effect of Treatment (Treatment minus Baseline) mean ± SD” value [1] was 788 ± 551 g/day. The “Wet Weight Fecal, Effect of Treatment (Treatment minus Baseline) mean ± SD” value [1] was -682 ± 911 g/day, the “Energy Absorption (% of intake), Effect at Follow up (Follow up minus Baseline) mean ± SD” value [2] was −6 ± 12 % of intake and the “Energy Absorption, Effect at Follow up (Follow up minus Baseline) mean ± SD” value [2] was -800 ± 2958 kJ/day. For the same molecule, the “Energy Fecal, Effect at Follow up (Follow up minus Baseline) mean ± SD” value [2] was 320 ± 1200 kJ/day, the “Urine Wet Weight, Effect at Follow up (Follow up minus Baseline) mean ± SD” value [2] was 11 ± 287 g/day and the “Wet Weight Absorption (% of intake), Effect at Follow up (Follow up minus Baseline) mean ± SD” value [2] was −9 ± 16 % of intake. For the same molecule, the “Wet Weight Absorption, Effect at Follow up (Follow up minus Baseline) mean ± SD” value [2] was -218 ± 577 g/day, the “Wet Weight Fecal, Effect at Follow up (Follow up minus Baseline) mean ± SD” value [2] was 278 ± 496 g/day and the “Energy Absorption (% of intake), Patients With Beneficial Effect” value [3] was 6. The “Energy Absorption (kJ/day), Patients With Beneficial Effect” value [3] was 6, the “Energy Fecal, Patients With Beneficial Effect” value [3] was 8 and the “Urine Wet Weight, Patients With Beneficial Effect” value [3] was 8. The “Wet Weight Absorption (% of intake), Patients With Beneficial Effect” value [3] was 8, the “Wet Weight Absorption (g/day), Patients With Beneficial Effect” value [3] was 9 and the “Wet Weight Fecal, Patients With Beneficial Effect” value [3] was 8. The “decrease in fecal wet weight compared to baseline” value (Group 2 SBS end-jejunostomy, 21-day treatment, stated as decrease) was 682 ± 911 g/day, the “decrease in fecal energy excretion compared to baseline” value (Group 2 SBS end-jejunostomy, p>0.05) was 532 ± 1703 kJ/day and the “decrease in fecal energy excretion compared to baseline” value (Group 3 SBS colon-in-continuity) was 1343 ± 916 kJ/day. For the same molecule, the “Energy Absorption (% of intake), Effect of Treatment (Treatment minus Baseline) mean ± SD” value [4] was 10±7 % of intake, the “Energy Absorption, Effect of Treatment (Treatment minus Baseline) mean ± SD” value [4] was 1027 ± 798 kJ/day and the “Energy Fecal, Effect of Treatment (Treatment minus Baseline) mean ± SD” value [4] was -1343 ± 916 kJ/day. For the same molecule, the “Urine Wet Weight, Effect of Treatment (Treatment minus Baseline) mean ± SD” value [4] was 461 ± 200 g/day, the “Wet Weight Absorption (% of intake), Effect of Treatment (Treatment minus Baseline) mean ± SD” value [4] was 26±16 % of intake and the “Wet Weight Absorption, Effect of Treatment (Treatment minus Baseline) mean ± SD” value [4] was 751 ± 328 g/day. For the same molecule, the “Wet Weight Fecal, Effect of Treatment (Treatment minus Baseline) mean ± SD” value [4] was -822 ± 341 g/day, the “Energy Absorption (% of intake), Effect at Follow up (Follow up minus Baseline) mean ± SD” value [5] was 10 ± 17 % of intake and the “Energy Absorption, Effect at Follow up (Follow up minus Baseline) mean ± SD” value [5] was 907 ± 1146 kJ/day. For the same molecule, the “Energy Fecal, Effect at Follow up (Follow up minus Baseline) mean ± SD” value [5] was -997 ± 1713 kJ/day, the “Urine Wet Weight, Effect at Follow up (Follow up minus Baseline) mean ± SD” value [5] was -90 ± 281 g/day and the “Wet Weight Absorption (% of intake), Effect at Follow up (Follow up minus Baseline) mean ± SD” value [5] was 17 ± 30 % of intake. The “Wet Weight Absorption, Effect at Follow up (Follow up minus Baseline) mean ± SD” value [5] was 352 ± 525 g/day, the “Wet Weight Fecal, Effect at Follow up (Follow up minus Baseline) mean ± SD” value [5] was -240 ± 426 g/day and the “Energy Absorption (% of intake), Patients With Beneficial Effect” value [6] was 5. For the same molecule, the “Energy Absorption (kJ/day), Patients With Beneficial Effect” value [6] was 5, the “Energy Fecal, Patients With Beneficial Effect” value [6] was 4 and the “Urine Wet Weight, Patients With Beneficial Effect” value [6] was 5. For the same molecule, the “Wet Weight Absorption (% of intake), Patients With Beneficial Effect” value [6] was 5.
